In this assay the test system is prostate. Nature of the assay: Prostate-reducing activity: prostate weight of male rats after 14-15 days of once-daily oral treatment with an EGF-R-TK inhibitor. The assay is classed as in vivo. The protocol:
The active substance is administered once a day as a suspension through an oesophageal tube. After the test period has ended the animals are killed, their prostates are removed and weighed.

[1] abbreviates: 10 mg/kg once a day by oesophageal tube, length of treatment 14 days.
Setting [2] is: 30 mg/kg once a day by oesophageal tube, length of treatment 14 days.
Where [3] appears, read: 100 mg/kg once a day by oesophageal tube, length of treatment 14 days.
Where [4] appears, read: 10 mg/kg once a day by oesophageal tube, length of treatment 15 days.
Where [5] appears, read: 30 mg/kg once a day by oesophageal tube, length of treatment 15 days.
[6] abbreviates: 100 mg/kg once a day by oesophageal tube, length of treatment 15 days.

SMILES strings stand for the structures. Marks after values point to notes of the source that are not given here.

Regarding `CN(CC=CC(=O)Nc1cc2c(Nc3ccc(F)c(Cl)c3)ncnc2cc1OC1CCCC1)C1CC1` [compound b, 4-[(3-chloro-4-fluorophenyl)amino]-6-{[4-(N-cyclopropyl-N-methyl-amino)-1-oxo-2-buten-1-yl]amino}-7-cyclopentyloxy-quinazoline], under setting [1], the “average absolute weight (prostate)” value is on record as 0.3983* g, the “average relative weight [% of body weight] (prostate)” value is on record as 0.1622* % of body weight and the “average relative weight [% of the brain] (prostate)” value is reported as 20.23* % of the brain. For the same molecule, under setting [2], the “average absolute weight (prostate)” value was determined as 0.3989 g, the “average relative weight [% of body weight] (prostate)” value was 0.1697 % of body weight and the “average relative weight [% of the brain] (prostate)” value is 20.71* % of the brain. Also, under setting [3], the “average absolute weight (prostate)” value is on record as 0.1848* g, the “average relative weight [% of body weight] (prostate)” value is given as 0.1191* % of body weight and the “average relative weight [% of the brain] (prostate)” value was 10.13* % of the brain.

Regarding `CN(C)CC=CC(=O)Nc1cc2c(Nc3ccc(F)c(Cl)c3)ncnc2cc1OC[C@@H]1CCCO1` [compound c, 4-[(3-chloro-4-fluorophenyl)amino]-6-{[4-(N,N-dimethylamino)-1-oxo-2-buten-1-yl]amino}-7-[(S)-(tetrahydrofuran-2-yl)methoxy]-quinazoline], under setting [4], the “average absolute weight (prostate)” value was 0.3854* g, the “average relative weight [% of body weight] (prostate)” value is reported as 0.1681 % of body weight and the “average relative weight [% of the brain] (prostate)” value is reported as 19.67* % of the brain. Under setting [5], the “average absolute weight (prostate)” value is 0.2242* g, the “average relative weight [% of body weight] (prostate)” value is 0.1117* % of body weight and the “average relative weight [% of the brain] (prostate)” value is listed as 11.50* % of the brain. Also, under setting [6], the “average absolute weight (prostate)” value was 0.1463* g, the “average relative weight [% of body weight] (prostate)” value is 0.0892* % of body weight and the “average relative weight [% of the brain] (prostate)” value was 7.63* % of the brain.

Values taken from US8431585B2, “Use of inhibitors of the EGFR-mediated signal transduction for the treatment of benign prostatic hyperplasia (BPH)/prostatic hypertrophy” (Boehringer Ingelheim Pharma GmbH & Co. KG, priority 2002, dated 2013).
